molecular target: Endothelial lipase (EL) (Homo sapiens (Human), UniProt Q9Y5X9); assay: Endothelial lipase (EL) enzymatic assay with fluorescent substrate A10070 in DMPG vesicles; type: biochemical; details: not given
How it was run: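 EL from conditioned medium of HT-1080 cells engineered to overexpress endogenous EL; HL partially purified from conditioned medium of HL-overexpressing COS cells. Enzyme preincubated with compound 30 min at 37° C in 50 mM HEPES pH 8.0, 50 mM NaCl, 1 mM CaCl2; DMPG vesicles carrying FRET substrate (0.11 mole fraction) then added.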

Endothelial lipase (EL), sequence (Q9Y5X9 21-500): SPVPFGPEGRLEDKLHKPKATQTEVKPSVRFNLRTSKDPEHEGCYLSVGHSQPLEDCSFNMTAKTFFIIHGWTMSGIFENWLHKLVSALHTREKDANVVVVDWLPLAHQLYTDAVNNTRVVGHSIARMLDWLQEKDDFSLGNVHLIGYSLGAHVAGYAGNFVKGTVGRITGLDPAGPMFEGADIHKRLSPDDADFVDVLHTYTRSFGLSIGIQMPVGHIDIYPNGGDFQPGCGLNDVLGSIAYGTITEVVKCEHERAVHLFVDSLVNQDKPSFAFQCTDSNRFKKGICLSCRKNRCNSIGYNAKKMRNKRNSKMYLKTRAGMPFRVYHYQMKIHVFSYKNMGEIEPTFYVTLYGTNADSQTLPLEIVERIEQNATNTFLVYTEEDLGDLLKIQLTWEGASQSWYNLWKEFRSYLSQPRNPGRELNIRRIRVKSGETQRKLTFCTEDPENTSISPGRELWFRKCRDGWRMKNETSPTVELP

IC50	SMILES
3 nM	CN(C)S(=O)(=O)C(C(=O)NCC(=O)NC1CC1)c1nc2c(F)cc(-c3ccc(-n4ccccc4=O)cc3)cc2s1 (stereo not drawn) [Example 497, N-[(cyclopropyl-carbamoyl)methyl]-2-(dimethyl-sulfamoyl)-2-{4-fluoro-6-[4-(2-oxo-1,2-dihydropyridin-1-yl)phenyl]-1,3-benzothiazol-2-yl}acetamide]
122 nM	CC(C)S(=O)(=O)C(C(=O)NCC(=O)NC1CC1)c1nc2cc(F)c(-c3cnc(=O)[nH]c3)cc2s1 (stereo not drawn) [Example 232, N-[(cyclopropyl-carbamoyl)methyl]-2-[5-fluoro-6-(2-oxo-1,2-dihydropyrimidin-5-yl)-1,3-benzothiazol-2-yl]-2-(propane-2-sulfonyl) acetamide]
150 nM	COCCS(=O)(=O)C(C(=O)NCC(=O)NC1CC1)c1nc2ccc(-c3cccc(F)n3)cc2s1 (stereo not drawn) [Example 314, N-[(cyclopropyl-carbamoyl)methyl]-2-[6-(6-fluoropyridin-2-yl)-1,3-benzothiazol-2-yl]-2-(2-methoxyethane-sulfonyl)acetamide]
16 nM	CS(=O)(=O)C(C(=O)NCC(=O)NC1CC1)c1nc2cc(F)c(-c3ccc(F)nc3)cc2s1 (stereo not drawn) [Example 190, N-[(cyclopropyl-carbamoyl)methyl]-2-[5-fluoro-6-(6-fluoropyridin-3-yl)-1,3-benzothiazol-2-yl]-2-methanesulfonyl-acetamide]
13 nM	COCCS(=O)(=O)C(C(=O)NCC(=O)NC1CC1)c1nc2ccc(-c3ccn(C)c(=O)c3)cc2s1 (stereo not drawn) [Example 316, N-[(cyclopropyl-carbamoyl)methyl]-2-(2-methoxyethane-sulfonyl)-2-[6-(1-methyl-2-oxo-1,2-dihydropyridin-4-yl)-1,3-benzothiazol-2-yl]acetamide]
1 nM	CS(=O)(=O)C(C(=O)NCC(=O)NC1CC1)c1nc2cc(-c3ccc(NC(=O)OCc4ccccc4)cc3)c(F)cc2s1 (stereo not drawn) [Example 8, benzyl N-{4-[2-({[(cyclopropyl-carbamoyl)methyl]carbamoyl} (methane-sulfonyl)methyl)-6-fluoro-1,3-benzothiazol-5-yl]phenyl} carbamate]
32 nM	Cn1ccc(-c2ccc3nc(C(C(=O)NCC(=O)NC4CC4)S(=O)(=O)c4ccc(F)cc4)sc3c2)cc1=O (stereo not drawn) [Example 458, N-[(cyclopropyl-carbamoyl)methyl]-2-(4-fluorobenzene-sulfonyl)-2-[6-(1-methyl-2-oxo-1,2-dihydropyridin-4-yl)-1,3-benzothiazol-2-yl]acetamide]
17 nM	COc1nccc(-c2cc3nc(C(C(=O)NCC(=O)NC4CC4)S(C)(=O)=O)sc3cc2F)c1F (stereo not drawn) [Example 368, N-[(cyclopropyl-carbamoyl)methyl]-2-[6-fluoro-5-(3-fluoro-2-methoxypyridin-4-yl)-1,3-benzothiazol-2-yl]-2-methanesulfonyl-acetamide]
152 nM	CS(=O)(=O)C(C(=O)NCC(=O)NC1CC1)c1nc2ccc(-c3ccccc3)cc2s1 (stereo not drawn) [Example 608, N-[(cyclopropyl-carbamoyl)methyl]-2-methanesulfonyl-2-(6-phenyl-1,3-benzothiazol-2-yl)acetamide]
60 nM	COCCS(=O)(=O)C(C(=O)NCC(=O)NC1CC1)c1nc2c(F)cc(-c3ccn(C)c(=O)c3)cc2s1 (stereo not drawn) [Example 220, N-[(cyclopropyl-carbamoyl)methyl]-2-[4-fluoro-6-(1-methyl-2-oxo-1,2-dihydropyridin-4-yl)-1,3-benzothiazol-2-yl]-2-(2-methoxyethane-sulfonyl) acetamide]
2 nM	O=C(CNC(=O)C(c1nc2cc(F)c(-c3ccc(NC(=O)OCC(F)(F)F)cc3)cc2s1)S(=O)(=O)CCC(F)(F)F)NC1CC1 (stereo not drawn) [Example 529, 2,2,2-trifluoroethyl N-{4-[2-({[(cyclopropyl-carbamoyl)methyl]carbamoyl}(3,3,3-trifluoropropane-sulfonyl)methyl)-5-fluoro-1,3-benzothiazol-6-yl]phenyl} carbamate]
7 nM	COC(=O)N(C)c1cccc(-c2ccc3nc(C(C(=O)NCC(=O)NC4CC4)S(=O)(=O)CCC(F)(F)F)sc3c2)c1 (stereo not drawn) [Example 546, methyl N-{3-[2-({[(cyclopropyl-carbamoyl)methyl]carbamoyl}(3,3,3-trifluoropropane-sulfonyl)methyl)-1,3-benzothiazol-6-yl]phenyl}-N-methylcarbamate]
93 nM	COCCS(=O)(=O)C(C(=O)NCC(=O)NC1CC1)c1nc2ccc(-c3cncnc3)cc2s1 (stereo not drawn) [Example 310, N-[(cyclopropyl-carbamoyl)methyl]-2-(2-methoxyethane-sulfonyl)-2-[6-(pyrimidin-5-yl)-1,3-benzothiazol-2-yl]acetamide]
2 nM	COCCS(=O)(=O)C(C(=O)NCC(=O)NC1CC1)c1nc2cc(F)c(-c3ccc4[nH]c(=O)ccc4c3)cc2s1 (stereo not drawn) [Example 149, N-[(cyclopropyl-carbamoyl)methyl]-2-[5-fluoro-6-(2-oxo-1,2-dihydroquinolin-6-yl)-1,3-benzothiazol-2-yl]-2-(2-methoxyethane-sulfonyl) acetamide]
15 nM	O=C(CNC(=O)C(c1nc2ccc(-c3ccc(C(=O)N4CCOCC4)cc3)cc2s1)S(=O)(=O)Cc1ccc(F)cc1)NC1CC1 (stereo not drawn) [Example 213, N-[(cyclopropyl-carbamoyl)methyl]-2-[(4-fluorophenyl)methanesulfonyl]-2-{6-[4-(morpholine-4-carbonyl)phenyl]-1,3-benzothiazol-2-yl}acetamide]
4 nM	COCCS(=O)(=O)C(C(=O)NCC(=O)NC1CC1)c1nc2ccc(-c3cc(C)nn3C)cc2s1 (stereo not drawn) [Example 317, N-[(cyclopropyl-carbamoyl)methyl]-2-[6-(1,3-dimethyl-1H-pyrazol-5-yl)-1,3-benzothiazol-2-yl]-2-(2-methoxyethane-sulfonyl)acetamide]
274 nM	COCCS(=O)(=O)C(C(=O)NCC(=O)NC1CC1)c1nc2cc(-c3ccc(F)cn3)ccc2s1 (stereo not drawn) [Example 90, N-[(cyclopropyl-carbamoyl)methyl]-2-[5-(5-fluoropyridin-2-yl)-1,3-benzothiazol-2-yl]-2-(2-methoxyethane-sulfonyl) acetamide]
135 nM	COCCS(=O)(=O)C(C(=O)NCC(=O)NC1CC1)c1nc2ccc(-c3cnc(Cl)n3C)cc2s1 (stereo not drawn) [Example 345, 2-[6-(2-chloro-1-methyl-1H-imidazol-5-yl)-1,3-benzothiazol-2-yl]-N-[(cyclopropyl-carbamoyl)methyl]-2-(2-methoxyethane-sulfonyl)acetamide]
25 nM	COCCS(=O)(=O)C(C(=O)NCC(=O)NC1COC1)c1nc2cc(-c3ccc(F)nc3)ccc2s1 (stereo not drawn) [Example 386, 2-[5-(6-fluoropyridin-3-yl)-1,3-benzothiazol-2-yl]-2-(2-methoxyethane-sulfonyl)-N-{[(oxetan-3-yl)carbamoyl]methyl} acetamide]

same assay, conditions: EL from conditioned media of HT-1080 cells; 30 min preincubation at 37° C.

IC50	SMILES
2.9 nM	CC(C)OCCNC(=O)CNC(=O)C(c1nc2ccc(-c3ccc4c(c3)CNC4=O)cc2s1)S(C)(=O)=O (stereo not drawn) [Example 287, N-(2-((2-Isopropoxyethyl)amino)-2-oxoethyl)-2-(methylsulfonyl)-2-(6-(1-oxoisoindolin-5-yl)benzo[d]thiazol-2-yl)acetamide]
33 nM	COCCS(=O)(=O)C(C(=O)NCC(=O)NC1CC1)c1nc2ccc(-c3ccc(C(=O)N(C)C4CC4)cc3)cc2s1 (stereo not drawn) [Example 393, N-Cyclopropyl-4-(2-(2-((2-(cyclopropylamino)-2-oxoethyl)amino)-1-((2-methoxyethyl)sulfonyl)-2-oxoethyl)benzo[d]thiazol-6-yl)-N-methylbenzamide]
